Measurements taken from patent publication US3984393A, “Aminoglycoside antibiotics” (The Upjohn Company, priority 1975, dated 1976).
In brackets after ≈: the same amount, converted by molar mass. Read-outs that look alike come from different tables or passages of the source.

Tests used:
[1] = test system: S. marcescens UC 131; assay: standard microplate test in BHI Agar (MIC), S. marcescens UC 131; assay type: cell-based; conditions: Serratia marcescens, UC131, 20 h, read-out: Minimum Inhibitory Concentration, S. marcescens UC 131, retest table, neamine control
How it was run: (§1)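 Compounds were tested at 1 mg/ml in Brain Heart Infusion agar by microplate assay. Plates were incubated at 37° and end points read at 20 hours.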

[2] = test system: P. rettgeri UC 339; assay: standard microplate test in BHI Agar (MIC), P. rettgeri UC 339; assay type: cell-based; conditions: Providencia rettgeri, UC339, 20 h, read-out: Minimum Inhibitory Concentration, P. rettgeri UC 339, retest table, neamine control
How it was run: as §1

[3] = test system: P. morgani UC 3186; assay: standard microplate test in BHI Agar (MIC), P. morgani UC 3186; assay type: cell-based; conditions: 20 h, read-out: Minimum Inhibitory Concentration, P. morgani UC 3186, retest table, neamine control
How it was run: as §1

[4] = test system: St. faecalis UC 694; assay: standard microplate test in BHI Agar (MIC), St. faecalis UC 694; assay type: cell-based; conditions: Enterococcus faecalis, UC694, 20 h
How it was run: as §1

[5] = test system: P. vulgaris UC 93; assay: standard microplate test in BHI Agar (MIC), P. vulgaris UC 93; assay type: cell-based; conditions: Proteus vulgaris, UC93, 20 h, read-out: Minimum Inhibitory Concentration, P. vulgaris UC 93
How it was run: as §1

[6] = test system: S. schottmuelleri UC 126; assay: standard microplate test in BHI Agar (MIC), S. schottmuelleri UC 126; assay type: cell-based; conditions: 20 h, read-out: Minimum Inhibitory Concentration
Procedure: Compounds were also tested in a standard microplate test in Brain Heart Infusion (BHI) Agar, at a concentration of 1 mg/ml. Incubation is at 37° and end points are read at 20 hours. Brain Heart Infusion Agar (supplied by Difco Laboratories, Detroit, Michigan, U.S.A.) has the following composition:
Compounds (7β), (7α) and (9) were tested again along with compounds (11) and (14β) against a neamine control using the same conditions as given above.

[7] = test system: S. flexneri UC 143; assay: standard microplate test in BHI Agar (MIC), S. flexneri UC 143; assay type: cell-based; conditions: retest table, neamine control
How it was run: as §1

[8] = test system: E. coli UC 45; assay: standard microplate test in BHI Agar (MIC), E. coli UC 45; assay type: cell-based; conditions: Escherichia coli, UC45, 20 h, read-out: Minimum Inhibitory Concentration, E. coli UC 45
How it was run: as §1

[9] = test system: S. hemolyticus UC 152; assay: standard microplate test in BHI Agar (MIC), S. hemolyticus UC 152; assay type: cell-based, Streptococcus hemolyticus; conditions: Streptococcus pyogenes, UC152, 20 h, read-out: Minimum Inhibitory Concentration, S. hemolyticus UC 152
How it was run: as §1

[10] = test system: S. aureus UC 76; assay: standard microplate test in BHI Agar (MIC), S. aureus UC 76; assay type: cell-based, Staphylococcus aureus; conditions: Staphylococcus aureus, UC76, 20 h
How it was run: as §1

[11] = test system: S. typhi TG-3; assay: standard microplate test in BHI Agar (MIC), S. typhi TG-3; assay type: cell-based; conditions: Salmonella enterica, 20 h, S. typhi TG-3, retest table, neamine control, read-out: Minimum Inhibitory Concentration
How it was run: as §1

[12] = test system: S. aureus UC 746; assay: standard microplate test in BHI Agar (MIC), S. aureus UC 746; assay type: cell-based; conditions: Staphylococcus aureus, UC746, 20 h, 37°, first table, read-out: Minimum Inhibitory Concentration
Procedure: (§2) Compounds were also tested in a standard microplate test in Brain Heart Infusion (BHI) Agar, at a concentration of 1 mg/ml. Incubation is at 37° and end points are read at 20 hours. Brain Heart Infusion Agar (supplied by Difco Laboratories, Detroit, Michigan, U.S.A.) has the following composition: […]

[13] = test system: S. aureus UC 570; assay: standard microplate test in BHI Agar (MIC), S. aureus UC 570; assay type: cell-based; conditions: Staphylococcus aureus, UC570, 20 h, 37°, first table, read-out: Minimum Inhibitory Concentration
Procedure: as §2

[14] = test system: P. mirabilis A-63; assay: standard microplate test in BHI Agar (MIC), P. mirabilis A-63; assay type: cell-based
How it was run: as §1

[15] = test system: D. pneumoniae UC 41; assay: standard microplate test in BHI Agar (MIC), D. pneumoniae UC 41; assay type: cell-based; conditions: Streptococcus pneumoniae, UC41, 20 h, read-out: Minimum Inhibitory Concentration, D. pneumoniae UC 41
How it was run: as §1

[16] = test system: K. pneumoniae UC 58; assay: standard microplate test in BHI Agar (MIC), K. pneumoniae UC 58; assay type: cell-based; conditions: Klebsiella pneumoniae, UC58, 20 h, read-out: Minimum Inhibitory Concentration, K. pneumoniae UC 58
How it was run: as §1

[17] = test system: Ps. aeruginosa UC 95; assay: standard microplate test in BHI Agar (MIC), Ps. aeruginosa UC 95; assay type: cell-based; conditions: Pseudomonas aeruginosa, UC95, 20 h, read-out: Minimum Inhibitory Concentration, Ps. aeruginosa UC 95
How it was run: as §1

[18] = BHI agar, 37°, 20 h, first table
[19] = BHI agar, 37°, 20 h, first table, *run on different day
[20] = retest table, group (7β), (14β), neamine control
[21] = retest table, group (9), (11), (7α), neamine control

NC[C@H]1O[C@H](O[C@H]2[C@H](O)[C@@H](O)[C@H](N)C[C@@H]2N)[C@H](N)[C@@H](O)[C@@H]1O [Neamine, reference compound]
MIC ([1]; group (7β), (14β)): 250 µg/mL (≈ 776 µM)
MIC ([1]; group (9), (11), (7α)): 125 µg/mL (≈ 388 µM)
MIC ([2]; group (7β), (14β)): 1000 µg/mL (≈ 3100 µM)
MIC ([2]; group (9), (11), (7α)): 500 µg/mL (≈ 1550 µM)
MIC ([3]; group (7β), (14β)): 62.5 µg/mL (≈ 194 µM)
MIC ([3]; group (9), (11), (7α)): 31.2 µg/mL (≈ 96.8 µM)
MIC ([4]; read-out: Minimum Inhibitory Concentration, S. faecalis UC 694, retest table, group (7β), (14β), neamine control): 500 µg/mL (≈ 1550 µM)
MIC ([4]; read-out: Minimum Inhibitory Concentration, S. faecalis UC 694, retest table, group (9), (11), (7α), neamine control): 500 µg/mL (≈ 1550 µM)
MIC ([4]; read-out: Minimum Inhibitory Concentration, St. faecalis UC 694, BHI agar, 37°, 20 h, first table): 1000 µg/mL (≈ 3100 µM)
MIC ([4]; read-out: Minimum Inhibitory Concentration, St. faecalis UC 694, BHI agar, 37°, 20 h, first table, *run on different day): 500 µg/mL (≈ 1550 µM)
MIC [5, 18]: 250 µg/mL (≈ 776 µM)
MIC [5, 19]: 125 µg/mL (≈ 388 µM)
MIC [5, 20]: 62.5 µg/mL (≈ 194 µM)
MIC [5, 21]: 15.6 µg/mL (≈ 48.4 µM)
MIC ([6]; BHI agar, 37°, first table, *run on different day): 62.5 µg/mL (≈ 194 µM)
MIC ([6]; BHI agar, 37°, first table): 62.5 µg/mL (≈ 194 µM)
MIC [6, 20]: 31.2 µg/mL (≈ 96.8 µM)
MIC [6, 21]: 62.5 µg/mL (≈ 194 µM)
MIC ([7]; Shigella flexneri, UC143, 20 h, group (9), (11), (7α), read-out: Minimum Inhibitory Concentration): 62.5 µg/mL (≈ 194 µM)
Minimum Inhibitory Concentration ([7]; group (7β), (14β)): 62.5 µg/mL
MIC [8, 18]: 62.5 µg/mL (≈ 194 µM)
MIC [8, 19]: 125 µg/mL (≈ 388 µM)
MIC [8, 20]: 62.5 µg/mL (≈ 194 µM)
MIC [8, 21]: 62.5 µg/mL (≈ 194 µM)
MIC [9, 18]: 3.9 µg/mL (≈ 12.1 µM)
MIC [9, 19]: 7.8 µg/mL (≈ 24.2 µM)
MIC [9, 20]: 3.9 µg/mL (≈ 12.1 µM)
MIC [9, 21]: 2 µg/mL (≈ 6.2 µM)
MIC ([10]; read-out: Minimum Inhibitory Concentration, S. aureus 284 UC 76, BHI agar, 37°, 20 h, first table): 125 µg/mL (≈ 388 µM)
MIC ([10]; read-out: Minimum Inhibitory Concentration, S. aureus 284 UC 76, BHI agar, 37°, 20 h, first table, *run on different day): 62.5 µg/mL (≈ 194 µM)
MIC ([10]; read-out: Minimum Inhibitory Concentration, S. aureus UC 76, retest table, group (7β), (14β), neamine control): 31.2 µg/mL (≈ 96.8 µM)
MIC ([10]; read-out: Minimum Inhibitory Concentration, S. aureus UC 76, retest table, group (9), (11), (7α), neamine control): 31.2 µg/mL (≈ 96.8 µM)
MIC ([11]; group (7β), (14β)): 15.6 µg/mL (≈ 48.4 µM)
MIC ([11]; group (9), (11), (7α)): 31.2 µg/mL (≈ 96.8 µM)
MIC ([12]; *run on different day): 62.5 µg/mL (≈ 194 µM)
MIC [12]: 250 µg/mL (≈ 776 µM)
MIC ([13]; *run on different day): 62.5 µg/mL (≈ 194 µM)
MIC [13]: 250 µg/mL (≈ 776 µM)
Minimum Inhibitory Concentration ([14]; P. mirabilis A-63, retest table, group (7β), (14β), neamine control): 250 µg/mL
MIC ([14]; Proteus mirabilis, A63, 20 h, read-out: Minimum Inhibitory Concentration): 250 µg/mL (≈ 776 µM)
MIC [15, 18]: > 1000 µg/mL
MIC [15, 19]: > 1000 µg/mL
MIC [15, 20]: 31.2 µg/mL (≈ 96.8 µM)
MIC [15, 21]: 62.5 µg/mL (≈ 194 µM)
MIC [16, 18]: 7.8 µg/mL (≈ 24.2 µM)
MIC [16, 19]: 15.6 µg/mL (≈ 48.4 µM)
MIC [16, 20]: 3.9 µg/mL (≈ 12.1 µM)
MIC [16, 21]: 7.8 µg/mL (≈ 24.2 µM)
MIC [17, 18]: > 1000 µg/mL
MIC [17, 19]: > 1000 µg/mL
MIC [17, 20]: 1000 µg/mL (≈ 3100 µM)
MIC [17, 21]: 1000 µg/mL (≈ 3100 µM)
